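Where inhibition never reached the appropriate level, the endpoint shown equals the highest concentration tested. Otherwise, values were interpolated linearly from a five-concentration, 48-hour dose response in 96-well plates. At the GI50, growth is halved.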 The source made the active and inactive calls. No stated cut-off is given here; in the data, active = GI50 up to about 1.1 µM and inactive = higher.
Assays:
Test in all cases: growth of human tumour cells (NCI), 48 h
[1] = tested on: HOP-92
[2] = tested on: UACC-62
[3] = tested on: HCC 2998
[4] = tested on: M14
[5] = tested on: SW-620
[6] = tested on: UACC-257
[7] = tested on: Hs-578T
[8] = tested on: UO-31
[9] = tested on: SF-539
[10] = tested on: NCI-H226
[11] = tested on: NCI/ADR-RES
[12] = tested on: SR
[13] = tested on: MOLT-4
[14] = tested on: PC-3
[15] = tested on: BT-549
[16] = tested on: MDA-MB-231
[17] = tested on: HCT-116
[18] = tested on: OVCAR-8
[19] = tested on: COLO 205
[20] = tested on: MDA-N
[21] = tested on: HOP-62
[22] = tested on: A498
[23] = tested on: NCI-H522
[24] = tested on: HCT-15
[25] = tested on: EKVX
[26] = tested on: ACHN
[27] = tested on: TK-10
[28] = tested on: NCI-H460
[29] = tested on: U-251
[30] = tested on: LOX IMVI
[31] = tested on: Malme-3M
[32] = tested on: SK-MEL-5
[33] = tested on: IGROV-1
[34] = tested on: A549
[35] = tested on: MDA-MB-435
[36] = tested on: RXF 393
[37] = tested on: SNB-19
[38] = tested on: OVCAR-3
[39] = tested on: NCI-H23
[40] = tested on: RPMI-8226
[41] = tested on: 786-0
[42] = tested on: SF-268
[43] = tested on: OVCAR-5
[44] = tested on: HL-60
[45] = tested on: MCF7
[46] = tested on: DU-145
[47] = tested on: SNB-75
[48] = tested on: T47D
[49] = tested on: SK-OV-3
[50] = tested on: K562
[51] = tested on: OVCAR-4
[52] = tested on: SK-MEL-28
[53] = tested on: HT-29
[54] = tested on: SK-MEL-2
[55] = tested on: SN12C
[56] = tested on: CAKI-1
[57] = tested on: CCRF-CEM
[58] = tested on: KM12
[59] = tested on: SF-295

## Cc1ccc(NC(=O)c2ccc(OP(=O)(O)Nc3ccc(C)cc3)cc2)cc1
[1]
  GI50: > 100 µM (inactive)
[2]
  GI50: > 100 µM (inactive)
[3]
  GI50: > 100 µM (inactive)
[4]
  GI50: 64.4 µM (inactive)
[5]
  GI50: > 100 µM (inactive)
[6]
  GI50: > 100 µM (inactive)
[7]
  GI50: 92.7 µM (inactive)
[8]
  GI50: 66.8 µM (inactive)
[9]
  GI50: > 100 µM (inactive)
[10]
  GI50: > 100 µM (inactive)
[11]
  GI50: > 100 µM (inactive)
[12]
  GI50: > 100 µM (inactive)
[13]
  GI50: > 100 µM (inactive)
[14]
  GI50: > 100 µM (inactive)
[15]
  GI50: > 100 µM (inactive)
[16]
  GI50: > 100 µM (inactive)
[17]
  GI50: > 100 µM (inactive)
[18]
  GI50: > 100 µM (inactive)
[19]
  GI50: > 100 µM (inactive)
[20]
  GI50: > 100 µM (inactive)
[21]
  GI50: > 100 µM (inactive)
[22]
  GI50: > 100 µM (inactive)
[23]
  GI50: 78.3 µM (inactive)
[24]
  GI50: > 100 µM
[25]
  GI50: > 100 µM (inactive)
[26]
  GI50: > 100 µM (inactive)
[27]
  GI50: > 100 µM (inactive)
[28]
  GI50: > 100 µM (inactive)
[29]
  GI50: > 100 µM (inactive)
[30]
  GI50: > 100 µM (inactive)
[31]
  GI50: > 100 µM (inactive)
[32]
  GI50: > 100 µM (inactive)
[33]
  GI50: > 100 µM (inactive)
[34]
  GI50: > 100 µM (inactive)
[35]
  GI50: > 100 µM (inactive)
[36]
  GI50: 50.7 µM (inactive)
[37]
  GI50: > 100 µM (inactive)
[38]
  GI50: > 100 µM (inactive)
[39]
  GI50: > 100 µM (inactive)
[40]
  GI50: > 100 µM (inactive)
[41]
  GI50: > 100 µM (inactive)
[42]
  GI50: > 100 µM (inactive)
[43]
  GI50: > 100 µM (inactive)
[44]
  GI50: > 100 µM (inactive)
[45]
  GI50: > 100 µM (inactive)
[46]
  GI50: > 100 µM (inactive)
[47]
  GI50: > 100 µM (inactive)
[48]
  GI50: > 100 µM (inactive)
[49]
  GI50: > 100 µM (inactive)
[50]
  GI50: > 100 µM (inactive)
[51]
  GI50: > 100 µM (inactive)
[52]
  GI50: > 100 µM (inactive)
[53]
  GI50: > 100 µM (inactive)
[54]
  GI50: 12 µM (inactive)
[55]
  GI50: > 100 µM (inactive)
[56]
  GI50: > 100 µM (inactive)
[57]
  GI50: > 100 µM (inactive)
[58]
  GI50: > 100 µM (inactive)
[59]
  GI50: > 100 µM (inactive)

## C=C(C)[C@@H](C(=O)OC)N1C(=O)c2ccccc2C1=O
[1]
  GI50: > 100 µM (inactive)
[2]
  GI50: > 100 µM (inactive)
[3]
  GI50: > 100 µM (inactive)
[4]
  GI50: > 100 µM (inactive)
[5]
  GI50: > 100 µM (inactive)
[6]
  GI50: > 100 µM (inactive)
[7]
  GI50: > 100 µM (inactive)
[8]
  GI50: > 100 µM (inactive)
[9]
  GI50: > 100 µM (inactive)
[10]
  GI50: > 100 µM (inactive)
[11]
  GI50: > 100 µM (inactive)
[12]
  GI50: > 100 µM (inactive)
[13]
  GI50: > 100 µM (inactive)
[14]
  GI50: > 100 µM (inactive)
[15]
  GI50: > 100 µM (inactive)
[16]
  GI50: > 100 µM (inactive)
[17]
  GI50: > 100 µM (inactive)
[18]
  GI50: > 100 µM (inactive)
[19]
  GI50: > 100 µM (inactive)
[20]
  GI50: > 100 µM (inactive)
[21]
  GI50: > 100 µM (inactive)
[22]
  GI50: > 100 µM (inactive)
[23]
  GI50: > 100 µM (inactive)
[24]
  GI50: > 100 µM
[25]
  GI50: > 100 µM (inactive)
[26]
  GI50: > 100 µM (inactive)
[27]
  GI50: > 100 µM (inactive)
[28]
  GI50: > 100 µM (inactive)
[29]
  GI50: > 100 µM (inactive)
[30]
  GI50: > 100 µM (inactive)
[31]
  GI50: > 100 µM (inactive)
[32]
  GI50: > 100 µM (inactive)
[33]
  GI50: > 100 µM (inactive)
[34]
  GI50: > 100 µM (inactive)
[35]
  GI50: > 100 µM (inactive)
[36]
  GI50: > 100 µM (inactive)
[37]
  GI50: > 100 µM (inactive)
[38]
  GI50: > 100 µM (inactive)
[39]
  GI50: > 100 µM (inactive)
[40]
  GI50: > 100 µM (inactive)
[41]
  GI50: > 100 µM (inactive)
[42]
  GI50: > 100 µM (inactive)
[43]
  GI50: > 100 µM (inactive)
[44]
  GI50: > 100 µM (inactive)
[45]
  GI50: > 100 µM (inactive)
[46]
  GI50: > 100 µM (inactive)
[47]
  GI50: > 100 µM (inactive)
[48]
  GI50: > 100 µM (inactive)
[49]
  GI50: > 100 µM (inactive)
[50]
  GI50: > 100 µM (inactive)
[51]
  GI50: > 100 µM (inactive)
[52]
  GI50: > 100 µM (inactive)
[53]
  GI50: > 100 µM (inactive)
[54]
  GI50: > 100 µM (inactive)
[55]
  GI50: > 100 µM (inactive)
[56]
  GI50: > 100 µM (inactive)
[57]
  GI50: > 100 µM (inactive)
[58]
  GI50: > 100 µM (inactive)
[59]
  GI50: > 100 µM (inactive)
